From ChEMBL document CHEMBL5113477, “Membrane acting Povarov-Doebner derived compounds potently disperse preformed multidrug resistant Gram-positive bacterial biofilms” (Eur J Med Chem, 2022)
Converted amounts (≈) assume the structure as drawn. Values belong to the molecule of their own block, whether it stands above or below them.

Tests used:
Format in all cases: functional
Staphylococcus aureus [1] = experiment: Induction of drug resistance in methicillin-resistant Staphylococcus aureus USA 300 assessed as fold increase in MIC treated daily for 30 days; conditions: time 30.0 day
Staphylococcus aureus [2] = experiment: Induction of drug resistance in methicillin-resistant Staphylococcus aureus ATCC 33592 assessed as fold increase in MIC treated daily for 30 days; conditions: time 30.0 day
Staphylococcus aureus [3] = experiment: Antibacterial activity against Staphylococcus aureus ATCC 25923 assessed as reduction in visible bacterial growth incubated for 18 to 20 hrs by CLSI based broth microdilution analysis; conditions: time 18-20 hrs
Enterococcus faecium = experiment: Antibacterial activity against vancomycin-resistant Enterococcus faecium ATCC 700221 assessed as reduction in visible bacterial growth incubated for 18 to 20 hrs by CLSI based broth microdilution analysis; conditions: time 18-20 hrs
Staphylococcus aureus [4] = experiment: Antibacterial activity against methicillin-resistant Staphylococcus aureus ATCC 33592 assessed as reduction in visible bacterial growth incubated for 18 to 20 hrs by CLSI based broth microdilution analysis; conditions: time 18-20 hrs
Listeria monocytogenes = experiment: Antibacterial activity against Listeria monocytogenes ATCC 19115 assessed as reduction in visible bacterial growth incubated for 18 to 20 hrs by CLSI based broth microdilution analysis; conditions: time 18-20 hrs
Enterococcus faecalis [5] = experiment: Antibacterial activity against Enterococcus faecalis ATCC 29212 assessed as reduction in visible bacterial growth incubated for 18 to 20 hrs by CLSI based broth microdilution analysis; conditions: time 18-20 hrs
Enterococcus faecalis [6] = experiment: Antibacterial activity against vancomycin-resistant Enterococcus faecalis ATCC 51575 assessed as reduction in visible bacterial growth incubated for 18 to 20 hrs by CLSI based broth microdilution analysis; conditions: time 18-20 hrs
Staphylococcus aureus [7] = experiment: Antibacterial activity against methicillin-resistant Staphylococcus aureus USA 300 assessed as reduction in visible bacterial growth incubated for 18 to 20 hrs by CLSI based broth microdilution analysis; conditions: time 18-20 hrs
Staphylococcus aureus [8] = experiment: Antibacterial activity against methicillin-resistant Staphylococcus aureus USA 300 (ARLG 1561) assessed as reduction in visible bacterial growth incubated for 18 to 20 hrs by CLSI based broth microdilution analysis; conditions: time 18-20 hrs
Staphylococcus aureus [9] = experiment: Antibacterial activity against methicillin-resistant Staphylococcus aureus USA 300 (ARLG 1567) assessed as reduction in visible bacterial growth incubated for 18 to 20 hrs by CLSI based broth microdilution analysis; conditions: time 18-20 hrs
Staphylococcus aureus [10] = experiment: Antibacterial activity against methicillin-resistant Staphylococcus aureus USA 300 (ARLG 1568) assessed as reduction in visible bacterial growth incubated for 18 to 20 hrs by CLSI based broth microdilution analysis; conditions: time 18-20 hrs
Staphylococcus aureus [11] = experiment: Antibacterial activity against methicillin-resistant Staphylococcus aureus USA 300 (ARLG 1569) assessed as reduction in visible bacterial growth incubated for 18 to 20 hrs by CLSI based broth microdilution analysis; conditions: time 18-20 hrs
Staphylococcus aureus [12] = experiment: Antibacterial activity against methicillin-resistant Staphylococcus aureus USA 300 (ARLG 1570) assessed as reduction in visible bacterial growth incubated for 18 to 20 hrs by CLSI based broth microdilution analysis; conditions: time 18-20 hrs
Staphylococcus aureus [13] = experiment: Antibacterial activity against methicillin-resistant Staphylococcus aureus USA 300 (ARLG 1644) assessed as reduction in visible bacterial growth incubated for 18 to 20 hrs by CLSI based broth microdilution analysis; conditions: time 18-20 hrs
Staphylococcus aureus [14] = experiment: Antibacterial activity against methicillin-resistant Staphylococcus aureus USA 300 (ARLG 1649) assessed as reduction in visible bacterial growth incubated for 18 to 20 hrs by CLSI based broth microdilution analysis; conditions: time 18-20 hrs
Staphylococcus aureus [15] = experiment: Antibacterial activity against methicillin-resistant Staphylococcus aureus USA 300 (ARLG 1663) assessed as reduction in visible bacterial growth incubated for 18 to 20 hrs by CLSI based broth microdilution analysis; conditions: time 18-20 hrs
Staphylococcus aureus [16] = experiment: Antibacterial activity against methicillin-resistant Staphylococcus aureus USA 300 (ARLG 1665) assessed as reduction in visible bacterial growth incubated for 18 to 20 hrs by CLSI based broth microdilution analysis; conditions: time 18-20 hrs

SMILES: C/C(=C\C(=O)OCCCCCCCCC(=O)O)C[C@@H]1OC[C@H](C[C@@H]2O[C@H]2[C@@H](C)[C@H](C)O)[C@@H](O)[C@H]1O
fold change (FC) (Staphylococcus aureus [1]): > 60
fold change (FC) (Staphylococcus aureus [2]): > 250

MIC (Staphylococcus aureus [3]): > 16 µg/mL
SMILES: Oc1ccc([C@@H]2Nc3ccc(OC(F)(F)F)cc3[C@H]3[C@@H]4CC[C@@H](C4)[C@H]32)cc1

MIC (Staphylococcus aureus [3]): 4 µg/mL (≈ 9.58 µM)
SMILES: Oc1ccccc1[C@@H]1Nc2ccc(S(F)(F)(F)(F)F)cc2[C@H]2[C@@H]3CC[C@@H](C3)[C@H]21

MIC (Staphylococcus aureus [3]): 4 µg/mL (≈ 10.2 µM)
SMILES: Oc1cccc([C@@H]2Nc3ccc(SC(F)(F)F)cc3[C@H]3[C@@H]4CC[C@@H](C4)[C@H]32)c1

MIC (Staphylococcus aureus [3]): > 16 µg/mL
SMILES: Oc1ccc([C@@H]2Nc3ccccc3[C@H]3[C@@H]4CC[C@@H](C4)[C@H]32)cc1

MIC (Staphylococcus aureus [3]): > 16 µg/mL
SMILES: FS(F)(F)(F)(F)c1ccc2c(c1)[C@H]1[C@@H]3CC[C@@H](C3)[C@H]1[C@H](c1ccccc1)N2

MIC (Staphylococcus aureus [3]): 4 µg/mL (≈ 9.58 µM)
SMILES: Oc1cccc([C@@H]2Nc3ccc(S(F)(F)(F)(F)F)cc3[C@H]3[C@@H]4CC[C@@H](C4)[C@H]32)c1

MIC (Staphylococcus aureus [3]): 8 µg/mL (≈ 22.4 µM)
SMILES: Oc1ccc([C@@H]2Nc3ccc(OC(F)F)cc3[C@H]3[C@@H]4CC[C@@H](C4)[C@H]32)cc1

MIC (Staphylococcus aureus [3]): 4 µg/mL (≈ 12.2 µM)
SMILES: Oc1ccc([C@@H]2Nc3cc(F)cc(F)c3[C@H]3[C@@H]4CC[C@@H](C4)[C@H]32)cc1

SMILES: CC(=O)NC[C@H]1CN(c2ccc(N3CCOCC3)c(F)c2)C(=O)O1 [LINEZOLID]
MBC (Enterococcus faecium): > 128 µg/mL
MIC (Enterococcus faecium): 1 µg/mL (≈ 2.96 µM)
MBC (Staphylococcus aureus [4]): 64 µg/mL (≈ 190 µM)
MBC (Staphylococcus aureus [3]): 64 µg/mL (≈ 190 µM)
MIC (Listeria monocytogenes): 2 µg/mL (≈ 5.93 µM)
MBC (Enterococcus faecalis [5]): 64 µg/mL (≈ 190 µM)
MBC (Enterococcus faecalis [6]): > 128 µg/mL
MBC (Staphylococcus aureus [7]): 128 µg/mL (≈ 379 µM)
MBC (Staphylococcus aureus [8]): 64 µg/mL (≈ 190 µM)
MIC (Staphylococcus aureus [8]): 1 µg/mL (≈ 2.96 µM)
MBC (Staphylococcus aureus [9]): > 64 µg/mL
MIC (Staphylococcus aureus [9]): 1 µg/mL (≈ 2.96 µM)
MBC (Staphylococcus aureus [10]): > 64 µg/mL
MIC (Staphylococcus aureus [10]): 1 µg/mL (≈ 2.96 µM)
MBC (Staphylococcus aureus [11]): 64 µg/mL (≈ 190 µM)
MIC (Staphylococcus aureus [11]): 1 µg/mL (≈ 2.96 µM)
MBC (Staphylococcus aureus [12]): 64 µg/mL (≈ 190 µM)
MIC (Staphylococcus aureus [12]): 1 µg/mL (≈ 2.96 µM)
MBC (Staphylococcus aureus [13]): > 64 µg/mL
MIC (Staphylococcus aureus [13]): 1 µg/mL (≈ 2.96 µM)
MBC (Staphylococcus aureus [14]): > 64 µg/mL
MIC (Staphylococcus aureus [14]): 1 µg/mL (≈ 2.96 µM)
MBC (Staphylococcus aureus [15]): > 64 µg/mL
MIC (Staphylococcus aureus [15]): 1 µg/mL (≈ 2.96 µM)
MBC (Staphylococcus aureus [16]): > 64 µg/mL
MIC (Staphylococcus aureus [16]): 1 µg/mL (≈ 2.96 µM)

MIC (Staphylococcus aureus [3]): > 16 µg/mL
SMILES: CSc1ccc2c(c1)[C@H]1[C@@H]3CC[C@@H](C3)[C@H]1[C@H](c1ccc(O)cc1)N2
